# Values quoted from earlier work in US9326524B1, “Insect repellent compositions” (Nantucket Spider, LLC, priority 2014, dated 2016).
# System: mosquitoes
# Details: compared with naturally derived PMD in the form of OLE
compound,measurement,value
"CC1CCC(C(C)(C)O)C(O)C1 (stereo not shown) [Pure PMD, p-Menthane-3,8-diol]",efficacy in repelling mosquitoes,significantly less efficacious
